Non-standard residues stand in square brackets, D forms with d. dDab = NCC[C@@H](N)C(=O)O; Orn = NCCC[C@H](N)C(=O)O; Dab = NCC[C@H](N)C(=O)O

This assay relates to Pseudomonas aeruginosa clinical isolate PAX11045. Briefly: Efficacy in murine pneumonia model, compound 1 in combination with tigecycline (Example 1). Format: in vivo. How it is done: Colony counts in lung were determined at 20 hours post treatment.
Fresh overnight colonies of PAX11045 from a 5% Horse Blood Agar plate were suspended in 0.9% sterile saline to approximately 10^8 CFU/ml and further diluted to approximately […]. Female mice (DBA/2, […], 18-22 g, Chales River) were anesthetized with 0.08 ml of Zoletil and inoculated via the nose with a pipette with 0.1 ml of the bacteria suspension containing approximately 10^6 CFU. 4 hours after inoculation, the mice were treated orally with 45 μl neurophen (20 mg ibuprofen/ml corresponding to approximately 30 mg/kg) as pain relief.
[…] As positive control Ciprofloxacin was used in the same manner with a fixed dose of 20 mg/kg.
Colony counts were determined post inoculation at 4 hours (untreated mice) and 24 hours (treated and vehicle-only treated mice). Immediately after the mice were sacrificed, the lungs were collected and frozen at −20° C. After thawing, the organs were homogenized in 1 ml 0.9% saline. Each sample was then 10 fold diluted in saline and 20 μl spots were applied on blood agar plates. All agar plates were incubated 18-24 hours at 35° C. in ambient air.

[1] abbreviates: compound 1 in presence of 12.5 mg/kg tigecycline, mice, murine lungs.

Take `CN(C)c1cc(NC(=O)CNC(C)(C)C)c(O)c2c1C[C@H]1C[C@H]3[C@H](N(C)C)C(O)=C(C(N)=O)C(=O)[C@@]3(O)C(O)=C1C2=O` [tigecycline, reference compound]: where the note is “tigecycline 12.5 mg/kg alone, s.c. single dose 3 h post infection, lung”, the “effect on bacterial loads” value is reported as “no effect”.
The ED50 is the dose at which the effect has come halfway, by size or by number of responders. On to “cyclo(TWI[Dab][Orn][dDab][Dab]W[Dab][Dab]AS[dP]P) [compound 1]”, for which, for the setting “compound 1 in presence of 12.5 mg/kg tigecycline (s.c., 3 h post infection), mice, murine lungs”, the Top level stood at 0.13 log10 CFU/ml. Also, under setting [1], the “2 log killing dose” value stood at 2.1 mg/kg, the Bottom level is on record as −2.37 log10 CFU/ml, the Emax came to 2.5 log10 CFU/ml and the Static dose is reported as 0.74 mg/kg. Also, the ED50 (compound 1 in presence of a fixed dose of tigecycline (12.5 mg/kg), mice, s.c., murine lungs, colony counts 20 h post treatment) is 1.33 mg/kg.

These data come from US9775877B2, “Combinations with a backbone-cyclized peptide” (POLYPHOR AG, priority 2012, dated 2017).
